Columns and labels:
termites = assay: Termite control fumigation test (overall statements); format: in vivo, Cryptotermes brevis, Incisitermes tabogae; settings: Example 6
Text: (§1) c) American drywood termites (Cryptotermes brevis)=CRYPBR, and Incisitermes tabogae=INCITA
(§2) The test organisms, separated by species, were placed into a glass vessel measuring 30 cm×30 cm×60 cm, which was sealed with a glass lid so as to be airtight. The adults and the larvae of the mealworm beetle (Tenebrio molitor) and the broad-horned flour beetle (Gnathocerus cornutus) were placed into small glass vessels approximately 5 cm in diameter, which were closed with a gauze lid and in which they could freely move about. The larvae of the rice weevil had burrowed into seeds of grain. The wood pest larvae were inserted into small blocks of wood measuring 5 cm×2.5 cm×2 cm. The openings were sealed with wads of cotton wool. Only one each of the larvae of the house longhorn beetle (Hylotrupes bajulus) was inserted into a piece of wood, while 6-8 larvae of the common furniture beetle (Anobium punctatum) were inserted into each piece of wood.
(§3) The respective gas was then introduced into the fumigation vessel through a gas line from a gas tank that contained the specified amount of gas. After a defined time period, the fumigation vessel was purged with compressed air. The discharged gas was purified by an attached gas scrubber.
(§4) The beetles were observed until they died. This point was recorded for each species. The larvae of the wood pests as well as the larvae of the rice weevil (Sitophilus oryzae) had to be picked out of the wood or the grain to check their condition. If any of the animals were still alive, the wooden test blocks remaining in the vessel were fumigated again and were reexamined after the corresponding time span had elapsed. The same number of animals in the untreated control was also checked at each point.
The vitality of the animals was checked at certain time intervals. The beetles could be observed through the fumigation vessel. This was also true for the larvae of the mealworm beetle and the broad-horned flour beetle. […] The exact time intervals and the number of the evaluated pests were documented in the test results.

[1] = test system: Common furniture beetle (Anobium punctatum) larvae; assay: Fumigation test in glass vessel, common furniture beetle larvae in wood blocks; format: in vivo; settings: ANOBPU larvae in wood blocks
[2] = test system: American drywood termites (Cryptotermes brevis); assay: Termite control fumigation test, Cryptotermes brevis; format: in vivo; settings: Example 6
Text: as §1, §2, §3, §4
(§5) The vitality of the animals was checked at certain time intervals. The beetles could be observed through the fumigation vessel. This was also true for the larvae of the mealworm beetle and the broad-horned flour beetle. The wooden test blocks of the wood pest larvae were opened with hammer and chisel. Tweezers were used to pull the rice weevil larvae out of the grain seeds. The exact time intervals and the number of the evaluated pests were documented in the test results.

[3] = test system: House longhorn beetle (Hylotrupes bajulus); assay: Fumigation test in glass vessel, house longhorn beetles; format: in vivo
[4] = test system: Common furniture beetle (Anobium punctatum); assay: Fumigation test in glass vessel, common furniture beetles; format: in vivo; settings: ANOBPU beetles; Example 5; ACF 50.6/48.2/51.4 g/m^3, SF 47.4/44.6/41 g/m^3 (1st/2nd/3rd fumigation); 23/23/22° C.
Text: b2) Common furniture beetle (Anobium punctatum)=[…]
as §2, §3, §4, §5

[5] = Example 5, ACF 50.6/48.2/51.4 g/m^3, SF 47.4/44.6/41 g/m^3 (1st/2nd/3rd fumigation), 23/23/22° C.
[6] = Example 7, ACF 53.0/54.6/0 g/m^3, second gas (SF) 43.6/41.4/39.8 g/m^3 (1st/2nd/3rd fumigation), 20.0/20.2/19.8 C.
[7] = CRYPBR termites, ACF 50.0/53.8 g/m^3, SF 47.8/44.8 g/m^3 (1st/2nd fumigation), 23.7/24° C.
[8] = HYLOBA beetles, Example 5, ACF 50.6/48.2/51.4 g/m^3, SF 47.4/44.6/41 g/m^3 (1st/2nd/3rd fumigation), 23/23/22° C.
[9] = HYLOBA beetles, Example 7, ACF 53.0/54.6/0 g/m^3, second gas (SF) 43.6/41.4/39.8 g/m^3 (1st/2nd/3rd fumigation), 20.0/20.2/19.8 C.

CC(=O)F [ACF, acetyl fluoride]
Effectiveness against termites in comparison test (termites; compared with SO2F2): as effective as SO2F2 | Speed of effect on termites in wood (termites; compared with sulfuryl fluoride, penetrates wood more quickly): slightly faster effect | Number alive, 1 hr. after Start of Fumigation [1, 5]: 1 | Number alive, 3 hrs. after Start of Fumigation [1, 5]: 2 | Number alive, 6 hrs after Start of Fumigation [1, 5]: 0 | Number dead, 1 hr. after Start of Fumigation [1, 5]: 3 | Number dead, 3 hrs. after Start of Fumigation [1, 5]: 2 | Number dead, 6 hrs after Start of Fumigation [1, 5]: 8 | Number alive, 1 hr. after 1st Fumigation [1, 6]: 5 | Number alive, 3 hrs. after 1st Fumigation [1, 6]: 2 | Number alive, 6 hrs after 1st Fumigation [1, 6]: 4 | Number dead, 1 hr. after 1st Fumigation [1, 6]: 1 | Number dead, 3 hrs. after 1st Fumigation [1, 6]: 4 | Number dead, 6 hrs after 1st Fumigation [1, 6]: 2 | Number alive, 30 min. after 1st Fumigation [2, 7]: 180 | Number alive, 1 hr. after 1st Fumigation [2, 7]: 60 | Number alive, 3 hrs. after 1st Fumigation [2, 7]: 0 | Number dead, 30 min. after 1st Fumigation [2, 7]: 0 | Number dead, 1 hr. after 1st Fumigation [2, 7]: 0 | Number dead, 3 hrs. after 1st Fumigation [2, 7]: 120 | Effectiveness against Cryptotermes [2]: particularly effective | Condition of Cryptotermes on reexamination after 24-hour observation period ([2]; animals fumigated 1 hour, then 24-hour observation): dead | Time after which the house longhorn beetles were dead ([3]; Example 4, 3 house longhorn beetles, gas 36.5 g/m^3, 19.3° C.): 15 min | Number alive, 30 min. after Start of Fumigation [3, 8]: 0 | Number dead, 30 min. after Start of Fumigation [3, 8]: 4 | Number alive, 30 min. after 1st Fumigation [3, 9]: 3 | Number alive, 1 hr. after 1st Fumigation [3, 9]: 0 | Number dead, 30 min. after 1st Fumigation [3, 9]: 3 | Number dead, 1 hr. after 1st Fumigation [3, 9]: 6 | Number alive, 30 min. after Start of Fumigation [4]: 0 | Number dead, 30 min. after Start of Fumigation [4]: 6

— US20030017186A1, “Carboxylic acid fluorides as pesticides” (priority 1999, published 2003)
